Results taken from patent publication US20190369111A1, “MOLECULAR KINETICS EVALUATION METHOD AND SCREENING METHOD” (Tokyo University of Science Foundation, priority 2016, published 2019).
Non-standard residues stand in square brackets, D forms with d. Residues, ends and D or L forms follow the SMILES beside them. Nle = CCCC[C@H](N)C(=O)O

Tests used:
[1] = molecular target: T1, catalytic subunit β1 of a proteasome (caspase-like activity) (Homo sapiens, UniProt P28072); details: reported by Kaiser, M. et al., 2004; patent's result consistent; cited from earlier work
T1 construct: purchased Bioscience

[2] = molecular target: T2, endogenous DHFR protein (Homo sapiens, UniProt P00374); test: Degradation of endogenous DHFR protein in HeLa cells, Western blot analysis; format: cell-based; details: 50 μM, 100 μM or 200 μM, 16 hours after addition
T2 construct: degradation (knockdown) of an endogenous DHFR protein in HeLa cells; endogenous in cells; host or cells: HeLa cells
T2 sequence (P00374 1-187): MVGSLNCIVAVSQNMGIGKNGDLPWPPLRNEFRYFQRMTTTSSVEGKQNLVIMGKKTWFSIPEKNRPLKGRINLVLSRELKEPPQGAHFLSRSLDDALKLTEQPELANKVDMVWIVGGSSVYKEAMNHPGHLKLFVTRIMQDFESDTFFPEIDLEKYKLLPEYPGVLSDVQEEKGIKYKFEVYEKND

[3] = molecular target: T3, DHFR protein (Mus musculus, UniProt P00375); test: Degradation of DHFR protein in each tissue of mouse after administration, Western blot analysis; format: in vivo
T3 construct: administered intraperitoneally to C57BL/6J wild-type mice; from tissue; host or cells: C57BL/6J wild-type mice: liver, kidneys, heart
T3 sequence (P00375 1-187): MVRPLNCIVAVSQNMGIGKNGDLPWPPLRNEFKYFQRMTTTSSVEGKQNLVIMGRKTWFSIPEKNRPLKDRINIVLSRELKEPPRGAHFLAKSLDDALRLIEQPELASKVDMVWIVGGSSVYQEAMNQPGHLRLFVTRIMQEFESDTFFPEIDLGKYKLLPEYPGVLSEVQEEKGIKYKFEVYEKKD
Description: MTX-CANDDY_MLN was dissolved in DMSO immediately before administration, and then dissolved in corn oil (Code No. 25606-55, Nacalai Tesque) so that the concentration of DMSO was 10 vol %, and then a dose of 50 mg/kg body weight or 100 mg/kg body weight was administered intraperitoneally to C57BL/6J wild-type mice (7 weeks old, male) (CLEA Japan, Inc.) (n=3). […] As a control, an injection carrier (corn oil containing 10 vol % DMSO) was used. The mice were kept under an environment of ad libitum access to food and water. The mice were dissected under deep anesthesia by Somnopentyl (Kyoritsu Seiyaku Corporation) 24 hours after administration. Abdominal section was performed, and then the liver, kidneys, and heart were sequentially extracted and flash frozen in liquid nitrogen. Each tissue frozen in liquid nitrogen was stored in a deep freezer at −80° C.
The frozen tissues (0.04 g) were each frozen and triturated, and then 980 μL of 1×TKM tissue lysis buffer (50 mM triethanolamine (pH 7.8), 50 mM KCl, 5 mM MgCl2, 0.25 M sucrose, 1 mM PMSF, protein inhibitors cocktail-EDTA free (Code No. 03969-21, Nacalai Tesque, Inc.), 1 mM DTT, and 5 μL/mL recombinant RNase inhibitor (40 U/μL, Cat No. 2313A, Lot No. K8402DA, TAKARA Bio)) were added, and dissolved by rotation for 15 minutes (1 rpm, 25° C.). Then, the resultant product was subjected to centrifugation (at 3000 rpm×15 minutes, 4° C.), and the supernatants (each tissue extract) were collected. The concentration of proteins in each tissue extract was quantified with a spectrophotometer using each tissue extract that had been diluted 20 times using DEPC-treated water.
Each tissue extract collected was subjected to Western blot analysis. An SDS-PAGE gel was prepared using TGX™ FastCast™ Acrylamide Kit, 12% (Bio-Rad). Electrophoresis samples were prepared in a 6×SDS-PAGE sample buffer (62.5 mM Tris-HCl pH 6.8, 2% SDS, 5% 2-mercaptoethanol, 10% glycerol, 0.25% BPB), and placed on a heat block at 95° C. for 5 minutes. The electrophoresis samples prepared were applied at 50 μg/well for detection of GAPDH, and applied at 100 μg/well for other detection. Electrophoresis was performed at 160 V for 60 minutes (electrophoresis buffer; 195 mM glycine, 25 mM Tris).
After electrophoresis, proteins were transferred to a PVDF membrane (Immobion™-P, Millipore) under conditions of 100 V and 1.5 hours using a tank-type blotting device and a transfer buffer (25 mM Tris-HCl, 195 mM glycine, 0.01% SDS, 15% methanol). […] Subsequently, the membrane was treated with a chemiluminescence reagent Immobilon™ Western (Millipore), and then chemiluminescence was detected using a lumino image analyzer LAS-3000 (FUJIFILM Corporation). Detected bands were quantified with an image processing software ImageJ (NIH).

[4] = molecular target: T4, catalytic subunit β5 of the proteasome (chymotrypsin-like activity) (Homo sapiens, UniProt P28074); test: 20S proteasome inhibitory activity, catalytic subunit β5; format: biochemical; details: AMC fluorescence substrate
T4 construct: purchased Bioscience
Description: (§1) For evaluation, 20S Proteasome StressXpress™ Assay Kit Gold (Bioscience) was used. AMC was measured by using Multi-Detection Microplate Reader (Synergy HT, BIO-TEK). The AMC was produced by cleaving the C-terminus of an AMC-binding proteasome fluorescence substrate specific to β subunits of a 20S proteasome, including β5 (chymotrypsin-like activity), β2 (trypsin-like activity), and β1 (caspase-like activity). The measuring wavelengths were 360 nm for excitation light (Ex.), and 460 nm for fluorescence (Em.).
(§2) In Reference Example 11, as in Reference Example 4, a proteasome inhibitory activity of TMP-CANDDY_ALLN and an affinity of TMP-CANDDY_ALLN with a proteasome were evaluated.

[5] = molecular target: T5, ecDHFR protein (Escherichia coli, UniProt P0ABQ4); format: cell-based, human; details: HeLa cells, 24 hours after addition, vs control (DMSO)
T5 construct: expressed in transfected cells; host or cells: HeLa cells, transient transfection with pMIR-DsRed-IRES-ecDHFR-HA-GFP

[6] = molecular target: T5, ecDHFR protein; format: cell-based, human; details: HeLa cells
[7] = molecular target: T1, catalytic subunit β1 of a proteasome (caspase-like activity); test: 20S proteasome inhibitory activity, catalytic subunit β1; format: biochemical; details: AMC fluorescence substrate
Description: as §1, §2

[8] = molecular target: T6, 20S proteasome (Homo sapiens, UniProt P28072+P28074+Q99436); test: Affinity with a proteasome evaluated from 20S proteasome assay kit; format: biochemical; details: suggested from concentration dependent inhibitory activity against β1, β2, β5
T6 construct: purchased Bioscience
Description: In Reference Example 2, the proteasome inhibitory activity of TMP-CANDDY_DMT and the affinity of TMP-CANDDY_DMT with a proteasome were evaluated. As a positive control, MG-132 as a proteasome inhibitor was used.
as §1, §2

[9] = molecular target: T7, catalytic subunit β2 of the proteasome (trypsin-like activity) (Homo sapiens, UniProt Q99436); test: 20S proteasome inhibitory activity, catalytic subunit β2; format: biochemical; details: AMC fluorescence substrate
T7 construct: purchased Bioscience
Description: as §1, §2

## CCCC[C@@H](C=O)NC(=O)[C@H](CC(C)C)NC(=O)[C@H](CC(C)C)NC(C)=O [ALLN, Calpain inhibitor I] (Ac-Leu-Leu-[Nle]-aldehyde)
[1]
  inhibition of β1 (caspase-like activity): not inhibited

## CC(C)C[C@H](NC(=O)CNC(=O)c1cc(Cl)ccc1Cl)C(=O)NCCCCCCNC(=O)CC[C@H](NC(=O)c1ccc(N(C)Cc2cnc3nc(N)nc(N)c3n2)cc1)C(=O)O [MTX-CANDDY_MLN]
[2]
  amount of endogenous DHFR protein: decreased in a concentration dependent manner
[3]; intraperitoneal 50 or 100 mg/kg body weight, 24 hours after administration, heart
  amount of DHFR protein in heart: reduction in the amount of the DHFR protein was not found
[3]; intraperitoneal 50 or 100 mg/kg body weight, 24 hours after administration, kidneys
  amount of DHFR protein in kidneys: reduced in a concentration dependent manner
[3]; intraperitoneal 50 or 100 mg/kg body weight, 24 hours after administration, liver
  amount of DHFR protein in liver: reduced in a concentration dependent manner
[3]; suggested from DHFR degradation in tissues
  transfer property to tissues (molecular kinetics): showed a higher transfer property in the liver and kidneys, as compared with the heart

## COc1nc(NCCCCCCNC(=O)COc2c(OC)cc(Cc3cnc(N)nc3N)cc2OC)nc(OC)n1 [TMP-CANDDY_DMT]
[4]
  proteasome inhibitory activity against β5 (chymotrypsin-like activity): significantly lower proteasome inhibitory activity as compared with MG-132
[5]
  degradation (knockdown) of ecDHFR protein (shift of GFP/DsRed ratio graph): degradation of the ecDHFR protein was induced
[6]; 24 hours after addition, cycloheximide 50 μg/mL added after 12 hours
  amount of ecDHFR protein: the amount of the ecDHFR protein was reduced
[6]; both TMP-CANDDY_DMT and bortezomib added, compared with TMP-CANDDY_DMT alone
  degradation of ecDHFR protein when bortezomib is added together: degradation of the ecDHFR protein was inhibited
[7]
  proteasome inhibitory activity against β1 (caspase-like activity): significantly lower proteasome inhibitory activity as compared with MG-132
[8]
  affinity with a proteasome: moderate affinity with a proteasome
[9]
  proteasome inhibitory activity against β2 (trypsin-like activity): significantly lower proteasome inhibitory activity as compared with MG-132
